Experimental findings from patent publication US9212182B2, “Bicyclic sulfonamide compounds as sodium channel inhibitors” (AMGEN INC., priority 2013, dated 2015) are described below.

The term IC50 denotes the concentration at which inhibition is half-maximal. Read a high IC50 as lower potency.

Nav 1.7, sequence (Q15858 whole entry): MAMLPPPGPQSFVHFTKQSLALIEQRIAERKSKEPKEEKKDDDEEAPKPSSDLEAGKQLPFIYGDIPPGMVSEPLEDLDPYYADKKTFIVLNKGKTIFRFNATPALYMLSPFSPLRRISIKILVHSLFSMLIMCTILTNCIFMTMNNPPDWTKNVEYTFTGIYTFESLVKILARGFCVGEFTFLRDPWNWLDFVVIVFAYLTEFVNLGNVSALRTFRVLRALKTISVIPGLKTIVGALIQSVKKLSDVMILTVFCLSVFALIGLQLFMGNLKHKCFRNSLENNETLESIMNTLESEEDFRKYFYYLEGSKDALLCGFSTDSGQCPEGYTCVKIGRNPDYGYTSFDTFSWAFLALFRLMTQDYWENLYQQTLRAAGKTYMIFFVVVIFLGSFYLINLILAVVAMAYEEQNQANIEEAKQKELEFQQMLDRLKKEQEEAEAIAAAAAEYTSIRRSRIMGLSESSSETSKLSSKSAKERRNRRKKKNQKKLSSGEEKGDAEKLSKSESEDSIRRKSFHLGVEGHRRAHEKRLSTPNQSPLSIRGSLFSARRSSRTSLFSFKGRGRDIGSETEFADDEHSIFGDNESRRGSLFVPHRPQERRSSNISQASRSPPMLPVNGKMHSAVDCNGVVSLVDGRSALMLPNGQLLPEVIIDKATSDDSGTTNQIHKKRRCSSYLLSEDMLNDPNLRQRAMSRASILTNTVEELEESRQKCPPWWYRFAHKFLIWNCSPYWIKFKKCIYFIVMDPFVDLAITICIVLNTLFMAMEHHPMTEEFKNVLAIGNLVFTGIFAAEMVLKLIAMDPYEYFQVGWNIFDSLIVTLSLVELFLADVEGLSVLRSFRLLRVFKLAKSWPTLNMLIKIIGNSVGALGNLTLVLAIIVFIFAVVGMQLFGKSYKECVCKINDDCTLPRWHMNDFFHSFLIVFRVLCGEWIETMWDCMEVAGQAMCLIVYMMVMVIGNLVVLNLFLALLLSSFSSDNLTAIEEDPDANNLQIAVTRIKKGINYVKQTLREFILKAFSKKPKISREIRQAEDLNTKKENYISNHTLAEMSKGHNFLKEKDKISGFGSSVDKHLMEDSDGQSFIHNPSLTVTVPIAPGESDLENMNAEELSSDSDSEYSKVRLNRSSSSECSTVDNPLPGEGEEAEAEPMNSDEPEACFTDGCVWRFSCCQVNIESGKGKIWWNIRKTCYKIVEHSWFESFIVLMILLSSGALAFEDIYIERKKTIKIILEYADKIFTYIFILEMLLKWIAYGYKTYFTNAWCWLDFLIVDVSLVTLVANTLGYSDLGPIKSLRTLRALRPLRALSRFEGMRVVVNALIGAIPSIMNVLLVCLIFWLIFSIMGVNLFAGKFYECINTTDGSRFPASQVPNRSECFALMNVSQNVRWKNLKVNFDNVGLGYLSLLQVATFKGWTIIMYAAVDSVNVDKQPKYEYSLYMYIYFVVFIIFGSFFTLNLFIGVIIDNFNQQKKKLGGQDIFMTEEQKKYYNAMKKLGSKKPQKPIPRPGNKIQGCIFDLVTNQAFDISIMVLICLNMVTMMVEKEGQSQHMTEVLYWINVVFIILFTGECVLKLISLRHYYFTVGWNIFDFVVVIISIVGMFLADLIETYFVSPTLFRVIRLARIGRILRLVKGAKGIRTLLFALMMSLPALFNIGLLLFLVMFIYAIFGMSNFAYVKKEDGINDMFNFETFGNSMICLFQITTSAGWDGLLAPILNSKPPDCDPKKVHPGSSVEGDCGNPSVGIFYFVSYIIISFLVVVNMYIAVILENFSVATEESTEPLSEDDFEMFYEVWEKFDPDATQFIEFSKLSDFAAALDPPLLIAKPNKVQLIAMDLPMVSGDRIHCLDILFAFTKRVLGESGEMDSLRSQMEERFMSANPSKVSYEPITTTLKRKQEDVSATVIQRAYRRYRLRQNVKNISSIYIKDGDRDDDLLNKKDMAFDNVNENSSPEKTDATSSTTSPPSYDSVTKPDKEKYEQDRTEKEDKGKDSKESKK

One experiment addresses Nav 1.7 (Homo sapiens (Human), UniProt Q15858). As to the kind of experiment: in-vitro Nav 1.7 PX (IC50). Type of experiment: cell-based. The following applies: in-vitro Nav 1.7 PX data.
In the case of `COc1nc(-c2cc(F)cc(Cl)c2)c(Cl)cc1-n1c(=O)ccc2cc(S(=O)(=O)Nc3ccon3)ccc21` [Example 1070, 1-(5-chloro-6-(3-chloro-5-fluorophenyl)-2-methoxy-3-pyridinyl)-N-3-isoxazolyl-2-oxo-1,2-dihydro-6-quinolinesulfonamide], the half-maximal inhibitory concentration (IC50) came out at 12 nM.

Molecule `COc1nc(-c2cc(F)cc(Cl)c2)c(Cl)cc1-n1c(=O)ccc2cc(S(=O)(=O)Nc3ccon3)ccc21` [Example 1071, 1-(5-chloro-6-(3-chloro-5-fluorophenyl)-2-methoxy-3-pyridinyl)-N-3-isoxazolyl-2-oxo-1,2-dihydro-6-quinolinesulfonamide] displayed an IC50 of 348 nM. On the same count and under the same terms, to `COc1cc(-c2ccc(Cl)c(C)c2)c(F)cc1-n1c(=O)ccc2cc(S(=O)(=O)Nc3cnsn3)ccc21` [Example 1072, 1-(4′-chloro-2-fluoro-5-methoxy-3′-methyl-4-biphenylyl)-2-oxo-N-1,2,5-thiadiazol-3-yl-1,2-dihydro-6-quinolinesulfonamide] belongs 18 nM; to `COc1cc(-c2ccc(Cl)c(C)c2)c(F)cc1-n1c(=O)ccc2cc(S(=O)(=O)Nc3ccsn3)ccc21` [Example 1073, 1-(4′-chloro-2-fluoro-5-methoxy-3′-methyl-4-biphenylyl)-N-3-isothiazolyl-2-oxo-1,2-dihydro-6-quinolinesulfonamide], 23 nM; to `COc1cc(-c2ccc(Cl)c(C)c2)c(F)cc1-n1c(=O)ccc2cc(S(=O)(=O)Nc3nncs3)ccc21` [Example 1074, 1-(4′-chloro-2-fluoro-5-methoxy-3′-methyl-4-biphenylyl)-2-oxo-N-1,3,4-thiadiazol-2-yl-1,2-dihydro-6-quinolinesulfonamide], 3 nM.

Staying with this experiment, now noted: in-vitro Nav 1.7 PX data (PatchXpress).
Molecule `COc1cc(-c2cc(Cl)ccc2F)ccc1-n1c(=O)ccc2cc(S(=O)(=O)Nc3ccon3)ccc21` [Example 1034, 1-(5′-chloro-2′-fluoro-3-methoxy-4-biphenylyl)-N-3-isoxazolyl-2-oxo-1,2-dihydro-6-quinolinesulfonamide] registered an IC50 of 10 nM. Same read-out and setting: to `COc1ccc(C)cc1-c1ccc(-n2c(=O)ccc3cc(S(=O)(=O)Nc4ccon4)ccc32)c(OC)c1` [Example 1036, 1-(2′,3-dimethoxy-5′-methyl-4-biphenylyl)-N-3-isoxazolyl-2-oxo-1,2-dihydro-6-quinolinesulfonamide] belongs 20 nM. On the same count and under the same terms, to `COc1ccc(C)c(-c2ccc(-n3c(=O)ccc4cc(S(=O)(=O)Nc5ccon5)ccc43)c(OC)c2)c1` [Example 1037, 1-(3,5′-dimethoxy-2′-methyl-4-biphenylyl)-N-3-isoxazolyl-2-oxo-1,2-dihydro-6-quinolinesulfonamide] belongs 24 nM. The molecule `COc1cc(-c2ccc(-n3c(=O)ccc4cc(S(=O)(=O)Nc5cccnn5)ccc43)c(OC)c2)ccc1Cl` [Example 1038, 1-(4′-chloro-3,3′-dimethoxy-4-biphenylyl)-2-oxo-N-3-pyridazinyl-1,2-dihydro-6-quinolinesulfonamide] displayed an IC50 of 58 nM. On the same count and under the same terms, the figure for `COc1cc(-c2ccc(-n3c(=O)ccc4cc(S(=O)(=O)Nc5ncco5)ccc43)c(OC)c2)ccc1Cl` [Example 1039, 1-(4′-chloro-3,3′-dimethoxy-4-biphenylyl)-N-1,3-oxazol-2-yl-2-oxo-1,2-dihydro-6-quinolinesulfonamide] is 149 nM; for `COc1cc(-c2cc(OC)c(-n3c(=O)ccc4cc(S(=O)(=O)Nc5ncco5)ccc43)cc2F)ccc1Cl` [Example 1040, 1-(4′-chloro-2-fluoro-3′,5-dimethoxy-4-biphenylyl)-N-1,3-oxazol-2-yl-2-oxo-1,2-dihydro-6-quinolinesulfonamide] it is 31 nM; for `O=c1ccc2cc(S(=O)(=O)Nc3cccnn3)ccc2n1-c1ccc(-c2cc(F)cc(F)c2)cc1C1CC1` [Example 1042, 1-(3-cyclopropyl-3′,5′-difluoro-4-biphenylyl)-2-oxo-N-3-pyridazinyl-1,2-dihydro-6-quinolinesulfonamide] it is 195 nM. On the same count and under the same terms, to `O=c1ccc2cc(S(=O)(=O)Nc3cnccn3)ccc2n1-c1ccc(-c2cc(F)cc(F)c2)cc1C1CC1` [Example 1044, 1-(3-cyclopropyl-3′,5′-difluoro-4-biphenylyl)-2-oxo-N-2-pyrazinyl-1,2-dihydro-6-quinolinesulfonamide] belongs 2950 nM; to `O=c1ccc2cc(S(=O)(=O)Nc3nncs3)ccc2n1-c1ccc(-c2cc(F)cc(F)c2)cc1C1CC1` [Example 1046, 1-(3-cyclopropyl-3′,5′-difluoro-4-biphenylyl)-2-oxo-N-1,3,4-thiadiazol-2-yl-1,2-dihydro-6-quinolinesulfonamide], 112 nM. On the same count and under the same terms, the figure for `O=c1ccc2cc(S(=O)(=O)Nc3nncs3)ccc2n1-c1ccc(-c2cc(F)cc(F)c2)cc1C1CC1` [Example 1047, 1-(3-cyclopropyl-3′,5′-difluoro-4-biphenylyl)-2-oxo-N-1,3,4-thiadiazol-2-yl-1,2-dihydro-6-quinolinesulfonamide] is 6500 nM.

Consider `O=c1ccc2cc(S(=O)(=O)Nc3ncns3)ccc2n1-c1ccc(-c2cc(F)cc(F)c2)cc1C1CC1` [Example 1048, 1-(3-cyclopropyl-3′,5′-difluoro-4-biphenylyl)-2-oxo-N-1,2,4-thiadiazol-5-yl-1,2-dihydro-6-quinolinesulfonamide], for which the midpoint of inhibition, the IC50, lay at 15 nM. This IC50 is about 430-fold lower than that of the molecule before. In turn, `O=c1ccc2cc(S(=O)(=O)Nc3ncns3)ccc2n1-c1ccc(-c2cc(F)cc(F)c2)cc1C1CC1` [Example 1049, 1-(3-cyclopropyl-3′,5′-difluoro-4-biphenylyl)-2-oxo-N-1,2,4-thiadiazol-5-yl-1,2-dihydro-6-quinolinesulfonamide] came in with an IC50 of 912 nM.

Consider `COc1cc(Br)ccc1-n1c(=O)ccc2cc(S(=O)(=O)Nc3cccnn3)ccc21` [Example 1050, 1-(4-bromo-2-methoxyphenyl)-2-oxo-N-3-pyridazinyl-1,2-dihydro-6-quinolinesulfonamide], for which half-maximal inhibition (IC50) required 1430 nM. Turning to `COc1cc(-c2ccccc2C(F)(F)F)ccc1-n1c(=O)ccc2cc(S(=O)(=O)Nc3ccon3)ccc21` [Example 1052, N-3-isoxazolyl-1-(3-methoxy-2′-(trifluoromethyl)-4-biphenylyl)-2-oxo-1,2-dihydro-6-quinolinesulfonamide], it took 54 nM to reach half-maximal inhibition (IC50). On the same count and under the same terms, the figure for `COc1cc(-c2cc(C)ccc2C)ccc1-n1c(=O)ccc2cc(S(=O)(=O)Nc3ccon3)ccc21` [Example 1055, N-3-isoxazolyl-1-(3-methoxy-2′,5′-dimethyl-4-biphenylyl)-2-oxo-1,2-dihydro-6-quinolinesulfonamide] is 16 nM; for `COc1cc(-c2cccc(C)c2C)ccc1-n1c(=O)ccc2cc(S(=O)(=O)Nc3ccon3)ccc21` [Example 1056, N-3-isoxazolyl-1-(3-methoxy-2′,3′-dimethyl-4-biphenylyl)-2-oxo-1,2-dihydro-6-quinolinesulfonamide] it is 25 nM. `COc1cc(-c2cccc(Cl)c2F)ccc1-n1c(=O)ccc2cc(S(=O)(=O)Nc3ccon3)ccc21` [Example 1057, 1-(3′-chloro-2′-fluoro-3-methoxy-4-biphenylyl)-N-3-isoxazolyl-2-oxo-1,2-dihydro-6-quinolinesulfonamide] displayed an IC50 of 11 nM. On the same count and under the same terms, to `COc1cc(-c2cccc(F)c2Cl)ccc1-n1c(=O)ccc2cc(S(=O)(=O)Nc3ccon3)ccc21` [Example 1058, 1-(2′-chloro-3′-fluoro-3-methoxy-4-biphenylyl)-N-3-isoxazolyl-2-oxo-1,2-dihydro-6-quinolinesulfonamide] belongs 38 nM. On the same count and under the same terms, the figure for `COc1cc(-c2cccc(C)c2Cl)ccc1-n1c(=O)ccc2cc(S(=O)(=O)Nc3ccon3)ccc21` [Example 1059, 1-(2′-chloro-3-methoxy-3′-methyl-4-biphenylyl)-N-3-isoxazolyl-2-oxo-1,2-dihydro-6-quinolinesulfonamide] is 32 nM; for `COc1cc(-c2ccc(C)cc2Cl)ccc1-n1c(=O)ccc2cc(S(=O)(=O)Nc3ccon3)ccc21` [Example 1060, 1-(2′-chloro-3-methoxy-4′-methyl-4-biphenylyl)-N-3-isoxazolyl-2-oxo-1,2-dihydro-6-quinolinesulfonamide] it is 28 nM.

Molecule `COc1ccc(-c2ccc(-n3c(=O)ccc4cc(S(=O)(=O)Nc5ccon5)ccc43)c(OC)c2)c(Cl)c1` [Example 1061, 1-(2′-chloro-3,4′-dimethoxy-4-biphenylyl)-N-3-isoxazolyl-2-oxo-1,2-dihydro-6-quinolinesulfonamide] registered an IC50 of 61 nM. This IC50 is about 2.2-fold higher than that of the molecule before.

`COc1cc(C)ccc1-c1ccc(-n2c(=O)ccc3cc(S(=O)(=O)Nc4ccon4)ccc32)c(OC)c1` [Example 1063, 1-(2′,3-dimethoxy-4′-methyl-4-biphenylyl)-N-3-isoxazolyl-2-oxo-1,2-dihydro-6-quinolinesulfonamide] displayed an IC50 of 98 nM. Same read-out and setting: the figure for `COc1cc(-c2cc(F)c(F)cc2C)ccc1-n1c(=O)ccc2cc(S(=O)(=O)Nc3ccon3)ccc21` [Example 1064, 1-(4′,5′-difluoro-3-methoxy-2′-methyl-4-biphenylyl)-N-3-isoxazolyl-2-oxo-1,2-dihydro-6-quinolinesulfonamide] is 13 nM; for `COc1cc(-c2cc(C)c(F)cc2F)ccc1-n1c(=O)ccc2cc(S(=O)(=O)Nc3ccon3)ccc21` [Example 1065, 1-(2′,4′-difluoro-3-methoxy-5′-methyl-4-biphenylyl)-N-3-isoxazolyl-2-oxo-1,2-dihydro-6-quinolinesulfonamide] it is 9 nM.

In the case of `COc1cc(-c2cc(Cl)ccc2C)ccc1-n1c(=O)ccc2cc(S(=O)(=O)Nc3ncco3)ccc21` [Example 1067, 1-(5′-chloro-3-methoxy-2′-methyl-4-biphenylyl)-N-1,3-oxazol-2-yl-2-oxo-1,2-dihydro-6-quinolinesulfonamide], the IC50 stood at 6 nM.

In turn, `COc1cc(-c2cc(F)cc(C(F)F)c2)ccc1-n1c(=O)ccc2cc(S(=O)(=O)Nc3ccon3)ccc21` [Example 1068, 1-(3′-(difluoromethyl)-5′-fluoro-3-methoxy-4-biphenylyl)-N-3-isoxazolyl-2-oxo-1,2-dihydro-6-quinolinesulfonamide] registered an IC50 of 75 nM. Turning to `COc1cc(-c2ccc(F)cc2)ccc1-n1c(=O)ccc2cc(S(=O)(=O)Nc3ccon3)ccc21` [Example 1069, 1-(4′-fluoro-3-methoxy-4-biphenylyl)-N-3-isoxazolyl-2-oxo-1,2-dihydro-6-quinolinesulfonamide], 71 nM corresponded to half-maximal inhibition (IC50). The IC50 values of the last two molecules are within 1.5-fold of each other.
